Assay results taken from patent US20240246905A1 (University of Leicester, priority 2021, published 2024).
In brackets after ≈: the same amount, converted by molar mass.

Key:
[1] = system: Staphylococcus aureus 15981; test: Disc diffusion (Kirby-Bauer), zone of inhibition; assay type: cell-based; settings: Staphylococcus aureus 15981; 500 μg/mL; '/' = no zone; read-out: Zone of inhibition
Outline: (§1)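 Kirby-Bauer per CLSI 2017: 1 in 200 dilutions of overnight cultures (LB for Gram-negatives, TSB for Gram-positives) spread on Mueller-Hinton agar. Discs loaded with 50 μL antibiotic were added and plates incubated 24 h at 37 °C. Zone of inhibition recorded.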

Escherichia coli DH5α = test: Disc diffusion (Kirby-Bauer), zone of inhibition; assay type: cell-based; settings: Escherichia coli DH5α; 500 μg/mL; '/' = no zone; read-out: Zone of inhibition
Outline: as §1

red blood cells = test: Hemolysis assay (CO-ADD); assay type: cell-based; settings: 32 μg/mL highest concentration tested
Source text: A problem often encountered by emerging drugs is hemolysis, also known as drug-induced immune hemolytic anemia.

[2] = system: various Staphylococcus aureus strains; test: Disc diffusion, Staphylococcus aureus strain study; assay type: cell-based; settings: Staphylococcus aureus, 500 μg/mL
Outline: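 Kirby-Bauer disc diffusion on Mueller-Hinton agar spread with 1:200 dilution of overnight S. aureus cultures (TSB, 37 °C). Discs loaded with 50 μL of compound at 500 μg/mL; zone of inhibition recorded after 24 h at 37 °C.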

MSSA 476 [3] = test: MIC, broth micro-dilution; assay type: cell-based, Staphylococcus aureus; settings: Staphylococcus aureus, MSSA, read-out: MIC
Outline: (§2)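 Broth micro-dilution followed CLSI 2017: 1:2 antibiotic dilutions in TSB were inoculated at 5×10^5 CFU/mL. OD was recorded every 12 min over 18 h at 37 °C, and MIC was derived from sigmoidal dose-response fits.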

MRSA 252 [4] = test: MIC, broth micro-dilution; assay type: cell-based, Staphylococcus aureus; settings: Staphylococcus aureus, read-out: MIC
Outline: as §2

MSSA 476 [5] = test: Disc diffusion (Kirby-Bauer), zone of inhibition; assay type: cell-based, Staphylococcus aureus; settings: Staphylococcus aureus, 500 μg/mL, '/' = no zone, read-out: Zone of inhibition
Outline: as §1

MRSA 252 [6] = test: Disc diffusion (Kirby-Bauer), zone of inhibition; assay type: cell-based, Staphylococcus aureus; settings: Staphylococcus aureus, 500 μg/mL, '/' = no zone, read-out: Zone of inhibition
Outline: as §1

HEK293 cells = test: Cytotoxicity assay, resazurin (CO-ADD)
Outline: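 HEK293 cells in DMEM with 10% FBS were exposed to compounds at a single concentration of 32 μg/mL for 20 h at 37° C, 5% CO2. Viability read by resazurin fluorescence (2.3 μg/mL final, 3 h; F560/590). CC50 from sigmoidal dose-response fitting.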

SMILES: [C-]#[N+]/C=C/c1ccc(NC(C)=O)cc1/C=C/c1ccccc1 [Compound 41, N-(4-((E)-2-Isocyanovinyl)-3-((E)-styryl)phenyl)acetamide]
- zone of inhibition at 500 µg/mL [1]: 34 mm
- zone of inhibition at 500 µg/mL (Escherichia coli DH5α): 20 mm
- Hemolytic activity (HC10) (red blood cells): >32 µg/mL
- zone of inhibition at 500 µg/mL ([2]; strain ASARM 61): 28 mm
- zone of inhibition at 500 µg/mL ([2]; strain ASARM 70): 32 mm
- zone of inhibition at 500 µg/mL ([2]; strain ASARM 71): 32 mm
- zone of inhibition at 500 µg/mL ([2]; strain ASARM 72): 30 mm
- zone of inhibition at 500 µg/mL ([2]; strain ASARM 73): 27 mm
- zone of inhibition at 500 µg/mL ([2]; strain ASARM 75): 26 mm
- zone of inhibition at 500 µg/mL ([2]; strain ASARM 76): 27 mm
- zone of inhibition at 500 µg/mL ([2]; strain ASARM 77): 25 mm
- zone of inhibition at 500 µg/mL ([2]; strain ASARM 79): 29 mm
- zone of inhibition at 500 µg/mL ([2]; strain ASARM 80): 30 mm
- zone of inhibition at 500 µg/mL ([2]; strain EOE 3): 26 mm
- zone of inhibition at 500 µg/mL ([2]; strain EOE 23): 26 mm
- zone of inhibition at 500 µg/mL ([2]; strain EOE 30): 30 mm
- zone of inhibition at 500 µg/mL ([2]; strain EOE 35): 28 mm
- zone of inhibition at 500 µg/mL ([2]; strain EOE 41): 26 mm
- zone of inhibition at 500 µg/mL ([2]; strain EOE 42): 30 mm
- zone of inhibition at 500 µg/mL ([2]; strain EOE 45): 30 mm
- zone of inhibition at 500 µg/mL ([2]; strain EOE 52): 28 mm
- zone of inhibition at 500 µg/mL ([2]; strain EOE 54): 26 mm
- zone of inhibition at 500 µg/mL ([2]; strain EOE 57): 30 mm
- zone of inhibition at 500 µg/mL ([2]; strain S139_7_7): 22 mm
- zone of inhibition at 500 µg/mL ([2]; strain S197_1_1): 32 mm
- zone of inhibition at 500 µg/mL ([2]; strain S197_1_8): 30 mm
- zone of inhibition at 500 µg/mL ([2]; strain S197_1_9): 32 mm
- zone of inhibition at 500 µg/mL ([2]; strain S197_1_10): 31 mm
- zone of inhibition at 500 µg/mL ([2]; strain S295_1_1): 29 mm
- zone of inhibition at 500 µg/mL ([2]; strain S295_1_2): 25 mm
- zone of inhibition at 500 µg/mL ([2]; strain S295_1_3): 27 mm
- zone of inhibition at 500 µg/mL ([2]; strain S364_5_11): 27 mm
- zone of inhibition at 500 µg/mL ([2]; strain S364_5_12): 28 mm
- zone of inhibition at 500 µg/mL ([2]; strain Sa_TPS 3026): 28 mm
- zone of inhibition at 500 µg/mL ([2]; strain Sa_TPS 3072): 26 mm
- zone of inhibition at 500 µg/mL ([2]; strain Sa_TPS 3092): 28 mm
- zone of inhibition at 500 µg/mL ([2]; strain Sa_TPS 3097): 28 mm
- zone of inhibition at 500 µg/mL ([2]; strain Sa_TPS 3103): 28 mm
- zone of inhibition at 500 µg/mL ([2]; strain Sa_TPS 3104): 28 mm
- zone of inhibition at 500 µg/mL ([2]; strain Sa_TPS 3106): 36 mm
- zone of inhibition at 500 µg/mL ([2]; strain Sa_TPS 3118): 32 mm
- zone of inhibition at 500 µg/mL ([2]; strain Sa_TPS 3133): 28 mm
- zone of inhibition at 500 µg/mL ([2]; strain Sa_TPS 3134): 26 mm
- zone of inhibition at 500 µg/mL ([2]; strain USFL 008): 28 mm
- zone of inhibition at 500 µg/mL ([2]; strain USFL 009): 27 mm
- zone of inhibition at 500 µg/mL ([2]; strain USFL 012): 32 mm
- zone of inhibition at 500 µg/mL ([2]; strain USFL 016): 29 mm
- zone of inhibition at 500 µg/mL ([2]; strain USFL 018): 32 mm
- zone of inhibition at 500 µg/mL ([2]; strain USFL 020): 28 mm
- zone of inhibition at 500 µg/mL ([2]; strain USFL 021): 29 mm
- zone of inhibition at 500 µg/mL ([2]; strain USFL 028): 29 mm
- zone of inhibition at 500 µg/mL ([2]; strain USFL 035): 30 mm
- zone of inhibition at 500 µg/mL ([2]; strain USFL 054): 30 mm
- zone of inhibition at 500 µg/mL ([2]; strain not given): 30 mm
- MIC (MSSA 476 [3]): 8 µg/mL (≈ 27.7 µM)
- MIC (MRSA 252 [4]): 6 µg/mL (≈ 20.8 µM)
- zone of inhibition at 500 µg/mL (MSSA 476 [5]): 34 mm
- zone of inhibition at 500 µg/mL (MRSA 252 [6]): 32 mm
- Concentration toxic to HEK 293 cells (HEK293 cells; HEK 293): >32000 ng/mL
- toxicity towards the HEK293 cell line (in words) (HEK293 cells; set concentration of 32 μg/mL): no toxicity
